Read-outs that look alike come from different tables or passages of the source.
Columns and labels:
[1] = target: T1, PRMT5 (symmetric dimethylation of arginine (SDMA) of PRMT5 substrates) in MCF-7 cells (Homo sapiens, UniProt O14744); assay: PRMT5 Cell Target Engagement (TE) Assay; assay type: cell-based; conditions: 3 days treatment, nuclear SDMA by high content imaging
T1 construct: endogenous in cells; host or cells: MCF-7 cells
Source text: PRMT5 Cell Target Engagement (TE) Assay
The PRMT5 TE assay is a biomarker assay for identifying compounds that inhibit symmetric dimethylation of arginine (SDMA) of PRMT5 substrates. The following substrates have been reported for PRMT5: histone H2A and H4 R3, Histone H3 R2, Histone H3 R8, spliceosome Sm proteins, ribosomal protein RPS10, p53, FEN1, nucleoplasmin, nucleolin, EGFR and EBNA. The assay focuses on detecting symmetrically dimethylated nuclear proteins using high content imaging technology. Detection of the expression of symmetrically dimethylated nuclear proteins is through a mixture of primary rabbit monoclonal antibodies to SDMA (CST 13222), which in turn recognized by an Alexafluor 488 dye-conjugated anti-rabbit IgG secondary antibody. The IN Cell Analyzer 2200 or Opera-Phenix measures nuclear Alexafluor 488 fluorescent dye intensity that is directly related to the level of expression of symmetrically dimethylated nuclear proteins at the single cell level. Nuclear AF488 dye intensities are compared to the mean value for DMSO treated cells (MIN) to report percent of inhibition for each compound-treated well.
In this assay, the cell potency (EC50) of each compound was determined from a ten point (1:3 serial dilution; top compound concentration of 10000 nM) titration curve using the following outlined procedure. Each well of a BD falcon collagen coated black/clear bottom 384-well plate was seeded with 4000 MCF-7 cells in 30 μl media and allowed to attach for 5 h. Media is ATCC-formulated Eagle's Minimum Essential Medium, Catalog No. 30-2003. To make the complete growth medium, the following components were added to the base medium: 0.01 mg/mL human recombinant insulin; fetal bovine serum to a final concentration of 10%. Additional 30 μl of media containing 2× compounds were added to each well. Cells were treated for 3 days in 37° C. CO2 incubator. On day 3, cells were fixed with Cytofix, permeablized with 0.4% Triton-X-100/Cytofix, and washed with D-PBS without Ca/Mg. Cells were blocked with Licor Odessey blocking reagent for 1 h at room temperature, followed by incubation with anti-SDMA (1:1000) antibody at 4° C. overnight. 1° antibody was removed, followed by three washings with DPBS without Ca/Mg and 0.05% Tween20. Hoechst (5 μg/mL), Cell Mask deep stain (1:2000) and Alexa488-conjugated goat anti-rabbit IgG (2 μg/mL) was added for 1 h at room temperature. A final washing step (three washes) was performed before sealing plate for imaging on In Cell Analyzer 2200 or Opera-Phenix. Images from analyzer were uploaded to Columbus (at WP or BOS) for image analysis. IC50 values were determined by 4 parameters robust fit of percent fluorescence units vs. (Log10) compound concentrations.

[2] = target: T2, PRMT5-MEP50 enzyme complex (Homo sapiens, UniProt O14744); assay: PRMT5-MEP50 Enzyme Methylation Assay; assay type: biochemical; conditions: recombinant FL-PRMT5-MEP50, biotinylated H4R3(Me1) peptide, 15 μM SAM
T2 construct: 1.25 nM of Full-length (FL)-PRMT5-MEP50 enzyme complex; made in house; host or cells: baculovirus-transfected Sf21 cells
T2 sequence (O14744 whole entry): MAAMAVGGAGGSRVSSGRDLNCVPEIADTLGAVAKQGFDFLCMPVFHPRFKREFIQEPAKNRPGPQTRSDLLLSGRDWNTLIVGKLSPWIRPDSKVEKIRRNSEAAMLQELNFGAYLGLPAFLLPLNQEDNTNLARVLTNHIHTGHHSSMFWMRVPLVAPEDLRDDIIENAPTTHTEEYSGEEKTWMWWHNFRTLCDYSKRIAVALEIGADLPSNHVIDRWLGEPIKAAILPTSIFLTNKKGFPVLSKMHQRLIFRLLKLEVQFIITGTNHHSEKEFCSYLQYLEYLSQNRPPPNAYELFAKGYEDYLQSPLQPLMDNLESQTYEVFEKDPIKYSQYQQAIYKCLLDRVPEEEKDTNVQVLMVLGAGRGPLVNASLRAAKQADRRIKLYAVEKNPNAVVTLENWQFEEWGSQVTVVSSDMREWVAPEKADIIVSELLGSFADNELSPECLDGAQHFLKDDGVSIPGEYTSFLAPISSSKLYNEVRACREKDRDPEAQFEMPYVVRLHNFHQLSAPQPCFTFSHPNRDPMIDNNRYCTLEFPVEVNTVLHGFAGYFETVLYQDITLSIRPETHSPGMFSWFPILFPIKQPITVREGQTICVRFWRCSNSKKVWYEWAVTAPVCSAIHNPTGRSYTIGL
T2 sequence (Q9BQA1 whole entry partner): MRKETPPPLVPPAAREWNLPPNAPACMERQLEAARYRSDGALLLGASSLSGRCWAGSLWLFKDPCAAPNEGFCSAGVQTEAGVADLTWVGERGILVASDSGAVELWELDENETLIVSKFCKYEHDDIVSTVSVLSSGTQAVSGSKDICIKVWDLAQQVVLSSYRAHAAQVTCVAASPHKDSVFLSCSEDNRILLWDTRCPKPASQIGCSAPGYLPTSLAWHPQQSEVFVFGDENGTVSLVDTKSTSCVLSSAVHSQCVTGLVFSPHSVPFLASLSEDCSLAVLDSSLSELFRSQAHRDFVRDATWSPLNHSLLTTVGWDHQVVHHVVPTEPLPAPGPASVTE
Method: PRMT5-MEP50 Enzyme Methylation Assay
PRMT5-MEP50 biochemical assay is a direct measurement of the methylation activity of the enzyme complex on a short peptide substrate derived from the N-terminus of H4 histone. Methylation experiment was performed with recombinant PRMT5-MEP50 protein complex. The assessment of inhibitory effect of small molecules was measured by the effectiveness of the compounds to inhibit this reaction (EC50).
In this assay, the potency (EC50) of each compound was determined from a twenty-point (1:2 serial dilution; top compound concentration of 100000 nM) titration curve using the following outlined procedure. To each well of a white ProxiPlus 384 well-plate, 100 nL of compound (1% DMSO in final assay volume of 10 μL) was dispensed, followed by the addition of 8 μL of 1× assay buffer (50 mM Bicine pH 8.0, 1 mM DTT, 0.004% Tween20, 0.01% BSA) containing 1.25 nM of Full-length (FL)-PRMT5-MEP50 enzyme complex (recombinant proteins from baculovirus-transfected Sf21 cells: FL-PRMT5; MW=[…] and FL-MEP50; MW=38614) and 1 μL of 150 μM S-(5′-Adenosyl)-L-Methionine Chloride (SAM). Plates were sealed and placed in a 37° C. humidified chamber for a 60 minutes pre-incubation with compound. Subsequently, each reaction was initiated by the addition of 1 μL 1× assay buffer containing 750 nM biotinylated H4R3(Me1) peptide. The final reaction in each well of 10 μL consists of 1.0 nM PRMT5-MEP50, 75 nM biotinylated-peptide, and 15 μM SAM. Methylation reactions were allowed to proceed for 150 minutes in a sealed plate at 37° C. Reactions were immediately quenched by the addition of 1 μL of 5% formic acid. Plates were then frozen and shipped to SAMDI™ Tech Inc. to determine the percent conversion from H4R3(Me1) to H4R3(Me2). Dose-response curves were generated by plotting percent effect (% product conversion; Y-axis) vs. Log 10 compound concentrations (X-axis). EC50 values were determined by non-linear regression according to models for sigmoidal (4 parameters) dose-response curves.

[3] = only EC50 (4 parameters single site sigmoidal model) or first EC50 of 7 parameters biphasic model, read-out: Enzyme Methylation Assay (EC50)
[4] = second EC50 of 7 parameters biphasic model, read-out: Enzyme Methylation Assay (EC50, nM), second EC50

T1 sequence (O14744 whole entry): as the sequence (O14744 whole entry) above
T1 sequence (Q9BQA1 whole entry partner): as the sequence (Q9BQA1 whole entry partner) above

EC50 [1] [nM]	EC50 [2, 3] [nM]	EC50 [2, 4] [nM]	SMILES
14	0.652	280	Cc1nc2nc(C(=O)N3CC[C@]4(Cc5ccccc5CN4)[C@H](O)C3)cn2cc1Br [Example 4, (6-bromo-7-methylimidazo[1,2-a]pyrimidin-2-yl)[(3R,3′R)-3′-hydroxy-1,4-dihydro-1′H,2H-spiro[isoquinoline-3,4′-piperidin]-1′-yl]methanone]
1.57	0.581		CO[C@H](C)c1cc(Br)cn2cc(C(=O)N3CC[C@]4(Cc5ccccc5CN4)[C@H](O)C3)nc12 (single isomer, unassigned) [Example 3]
4.42	0.216	72.4	O=C(c1cn2cc(C3CC3)cnc2n1)N1CC[C@]2(Cc3ccccc3CN2)[C@H](O)C1 [Example 5, (6-cyclopropylimidazo[1,2-a]pyrimidin-2-yl)[(3R,3′R)-3′-hydroxy-1,4-dihydro-1′H,2H-spiro[isoquinoline-3,4′-piperidin]-1′-yl]methanone]
6.23	0.525	224	COCc1cc(C(F)(F)F)cn2cc(C(=O)N3CC[C@]4(Cc5ccccc5CN4)[C@H](O)C3)nc12 [Example 1, ((3R,3′R)-3′-hydroxy-1,4-dihydro-1′H,2H-spiro[isoquinoline-3,4′-piperidin]-1′-yl)[8-(methoxymethyl)-6-(trifluoromethyl)imidazo[1,2-a]pyridin-2-yl]methanone]
2.11	0.369	114	CO[C@@H](C)c1cc(Br)cn2cc(C(=O)N3CC[C@]4(Cc5ccccc5CN4)[C@H](O)C3)nc12 (single isomer, unassigned) [Example 2]
